Experiments:
Assay type in all cases: in vivo
[1] = Pharmacokinetics in mice, blood and liver exposure via LC-MS; settings: for target tissue liver reached (in words): mice, systemic exposure minimized; for liver/blood ratio, 4 h / blood exposure, 4 h / liver exposure, 4 h: Dose (mg) 20, C57BL/6J mice; for blood exposure, 4 h / liver exposure, 4 h: 4 h after administration
Experimental: The pharmacokinetics of different sulfonamides was assessed in mice after single dosing and oral and intraperitoneal administrations. Blood and liver exposure was measured via LC-MS.
The study design was as follows:
Animals: C57BL/6J (Janvier) males
Diet: standard rodent chow
Vehicle for i.p. injection: 0.5% HPMC (w:v) in water, injection volume: <5 mL/kg
Animal handling: animals were withdrawn from food at least 12 h before administration
Design: single dose oral and bid ip administration, n=3 animals per group
Sacrifice: at t=4 h after administration
Bioanalytics: LC-MS of liver and blood samples

[2] = test system: Scd1; assay: Short term HFD mouse model, gene expression in liver tissue: Scd1; settings: liver mRNA (qPCR, normalized to Tbp), three oral doses of 20 mg/kg, HFD mice
Experimental: (§1) Short Term HFD Mouse Model:
(§2) The in vivo transcriptional regulation of several LXR target genes by LXR modulators was assessed in mice.
(§3) For this, C57BL/6J were purchased from Elevage Janvier (Rennes, France) at the age of 8 weeks. After an acclimation period of two weeks, animals were preferred on a high fat diet (HFD) (Ssniff Spezialdiaten GmbH, Germany, Surwit EF D12330 mod, Cat. No. E15771-34), with 60 kcal % from fat plus 1% (w/w) extra cholesterol (Sigma-Aldrich, St. Louis, Mo.) for 5 days. Animals were maintained on this diet during treatment with LXR modulators. […]
(§4) Upon termination, liver was collected, dipped in ice cold PBS for 30 seconds and cut into appropriate pieces. […] For the clinical chemistry analysis from plasma, alanine aminotransferase (ALT, IU/mL), cholesterol (CHOL, mg/dL) and triglycerides (TG, mg/dL) were determined using a fully-automated bench top analyzer (Respons®910, DiaSys Greiner GmbH, Flacht, Germany) with system kits provided by the manufacturer. […]
(§5) To obtain total RNA from frozen liver tissue, samples (25 mg liver tissue) were first homogenized with RLA buffer (4M guanidin thiocyanate, 10 mM Tris, 0.97% w:v β-mercapto-ethanol). […] Quantitative PCR was performed and analyzed using Prime time Gene expression master mix (Integrated DNA Technologies, Coralville, Iowa, USA) and a 384-format ABI 7900HT Sequence Detection System (Applied Biosystems, Foster City, USA). […]

[3] = Short term HFD mouse model, plasma and liver exposure; settings: three oral doses of 20 mg/kg, HFD C57BL/6J mice; for Kp at 4 h: mouse, liver/plasma, read-out: liver/plasma ratio, 4 h; for liver exposure, 4 h / plasma exposure, 4 h: 4 h after final treatment
Experimental: as §1, §2
For this, C57BL/6J were purchased from Elevage Janvier (Rennes, France) at the age of 8 weeks. After an acclimation period of two weeks, animals were preferred on a high fat diet (HFD) (Ssniff Spezialdiaten GmbH, Germany, Surwit EF D12330 mod, Cat. No. E15771-34), with 60 kcal % from fat plus 1% (w/w) extra cholesterol (Sigma-Aldrich, St. Louis, Mo.) for 5 days. Animals were maintained on this diet during treatment with LXR modulators. The test compounds were formulated in 0.5% hydroxypropylmethylcellulose (HPMC) and administered in three doses (20 mg/kg each) by oral gavage according to the following schedule: on day one, animals received treatment in the morning and the evening (ca. 17:00), on day two animals received the final treatment in the morning after a 4 h fast and were sacrificed 4 h thereafter. Animal work was conducted according to the national guidelines for animal care in Germany.
Upon termination, liver was collected, dipped in ice cold PBS for 30 seconds and cut into appropriate pieces. Pieces were snap frozen in liquid nitrogen and stored at −80° C. For the clinical chemistry analysis from plasma, alanine aminotransferase (ALT, IU/mL), cholesterol (CHOL, mg/dL) and triglycerides (TG, mg/dL) were determined using a fully-automated bench top analyzer (Respons®910, DiaSys Greiner GmbH, Flacht, Germany) with system kits provided by the manufacturer.

[4] = test system: Hepatic LXR target genes; assay: Short term HFD mouse model, hepatic LXR target genes (summary in words); settings: multiple oral dosing in mice
Experimental: as §1, §2, §3
as §5, with “USA). The expression of the following genes was analysed: Stearoyl-CoA desaturase1 (Scd1), fatty acid synthase (Fas) and sterol regulatory element-binding protein1 (Srebp1).” for “USA).”

[5] = test system: Srebp1c; assay: Short term HFD mouse model, gene expression in liver tissue: Srebp1c; settings: liver mRNA (qPCR, normalized to Tbp), three oral doses of 20 mg/kg, HFD mice
Experimental: as §1, §2, §3, §4, §5

[6] = test system: Fasn; assay: Short term HFD mouse model, gene expression in liver tissue: Fasn; settings: liver mRNA (qPCR, normalized to Tbp), three oral doses of 20 mg/kg, HFD mice
Experimental: as §1, §2, §3, §4, §5

| Compound | target tissue liver reached (in words) [1] | liver/blood ratio, 4 h ([1]; po) | blood exposure, 4 h ([1]; po) | liver exposure, 4 h ([1]; po) | Scd1 suppression compared to vehicle [2] | Kp at 4 h [3] | liver exposure, 4 h [3] [µM] | plasma exposure, 4 h [3] [nM] | Hepatic LXR target genes (in words) [4] | Srebp1c suppression compared to vehicle [5] | Fasn suppression compared to vehicle [6] | liver/blood ratio, 4 h ([1]; ip) | blood exposure, 4 h ([1]; ip) | liver exposure, 4 h ([1]; ip) |
| --- | --- | --- | --- | --- | --- | --- | --- | --- | --- | --- | --- | --- | --- | --- |
| COc1cc(-c2cccc(C(C)(C)C(=O)O)c2)ccc1CN(Cc1ccc(C(F)(F)F)o1)S(=O)(=O)c1c(C)cc(C)cc1C [10/4] | effectively reached | po: 11 | po: 189 ng/mL | po: 2136 ng/mL | – | – | – | – | – | – | – | – | – | – |
| Cc1cc(C)c(S(=O)(=O)N(Cc2ccc(-c3cccc(C(C)(C)C(=O)O)c3)cc2)Cc2ccc(C(F)(F)F)o2)c(C)c1 [7/5] | effectively reached | po: 18 | po: 300 ng/mL | po: 5398 ng/mL | – | – | – | – | – | – | – | – | – | – |
| Cc1ccc2ccccc2c1S(=O)(=O)N(Cc1ccc(-c2cccc(S(=O)(=O)CC(=O)O)c2)cc1)Cc1cccc(C(F)(F)F)c1 [11/19] | effectively reached | po: 125 | po: 0.01 μM | po: 1.07 μM | – | – | – | – | – | – | – | – | – | – |
| Cc1cc(C)c(S(=O)(=O)N(Cc2ccc(C(F)(F)F)o2)Cc2ccc(-c3cccc(C(C)(C)C(=O)O)c3)cc2Cl)c(C)c1 [10/5] | effectively reached | po: 21 | po: 242 ng/mL | po: 5120 ng/mL | 0.38 | 33.3 | 4.372 | 131 | effectively suppressed | 0.33 | 0.41 | – | – | – |
| Cc1ccc2ccccc2c1S(=O)(=O)N(Cc1ccc(-c2cccc(C(C)(C)C(=O)O)c2)cc1)Cc1ccc(C(F)(F)F)o1 [Example 24, 2-Methyl-2-(4′-(((2-methyl-N-((5-(trifluoromethyl)furan-2-yl)methyl)naphthalene)-1-sulfonamido)methyl)-[1,1′-biphenyl]-3-yl)propanoic acid] | effectively reached | po: 25 | po: 231 ng/mL | po: 5882 ng/mL | 0.25 | 52.4 | 5.359 | 102 | effectively suppressed | 0.25 | 0.23 | – | – | – |
| Cc1cc(C)c(S(=O)(=O)N(Cc2ccc(-c3cc(F)c(CO)c(S(C)(=O)=O)c3)cc2)Cc2ccc(C(F)(F)F)o2)c(C)c1 [Example C3/2] | – | po: 0.56 | po: 115 ng/mL | po: 64 ng/mL | – | – | – | – | – | – | – | – | – | – |
| Cc1cc(C)c(S(=O)(=O)N(Cc2ccc(-c3cccc(S(=O)(=O)CC(=O)O)c3)cc2)Cc2ccc(C(F)(F)F)o2)c(C)c1 [Example 5, 2-((4′-(((2,4,6-Trimethyl-N-((5-(trifluoromethyl)furan-2-yl)methyl)phenyl)sulfonamido)methyl)-[1,1′-biphenyl]-3-yl)sulfonyl)acetic acid] | effectively reached | po: 31 | po: 0.15 μM | po: 4.6 μM | – | – | – | – | – | – | – | ip: 27 | ip: 0.34 μM | ip: 9.3 μM |

Reference: US20200115357A1, “LIVER X RECEPTORS (LXR) MODULATORS” (Phenex-FXR GmbH, priority 2017, published 2020)
